According to patent US20060167086A1, “Medicinal composition” (priority 2003, published 2006):

Experiments:
[1] = Type II collagen-induced rheumatoid arthritis model mice; type: in vivo; conditions: administration to model mice of type II collagen-induced rheumatoid arthritis
[2] = tested on: Hodgkin's-lymphoma cells in which NF-κB is activated; experiment: Proliferation of Hodgkin's-lymphoma cells; type: cell-based
[3] = tested on: myelocytic leukemia cells in which NF-κB is not activated; experiment: Proliferation of myelocytic leukemia cells; type: cell-based
[4] = tested on: human breast cancer cells; experiment: Proliferation of human breast cancer cells in vitro and in vivo; type: cell-based; conditions: in a manner not depending on apoptosis
[5] = tested on: leukemia cells in which NF-κB is activated; experiment: Apoptosis of leukemia cells; type: cell-based
human normal leukocytes = experiment: Apoptosis of human normal leukocytes; type: cell-based; conditions: same concentration as that used in inducing apoptosis of leukemia cells
NF-κB [6] = experiment: NF-κB activation in ATL cells; type: cell-based
[7] = tested on: adult T cell leukemia/lymphoma (ATL) cells; experiment: Proliferation of ATL cells; type: cell-based
normal cells [8] = experiment: Proliferation of normal cells; type: cell-based
[9] = tested on: adult T cell leukemia/lymphoma (ATL) cells; experiment: Apoptosis of ATL cells; type: cell-based
normal cells [10] = experiment: Apoptosis of normal cells; type: cell-based
[11] = Model mice with induced cachexic symptoms; type: in vivo; conditions: administered to model mice with induced cachexic symptoms
[12] = Combination with oncotherapy that activates NF-κB; conditions: used in combination
NF-κB [13] = conditions: J. Biol. Chem. 277, 24625-24630, 2002; cited from earlier work
[14] = Bioorg. Med. Chem. Lett. 10, 865-869, 2000; cited from earlier work
prostatic cancer = conditions: Cancer Res. 2003; 63(1):107-10; cited from earlier work
breast cancer = conditions: Annual Meeting of the Japanese Cancer Association, 2002; cited from earlier work
[15] = background statement; cited from earlier work
[16] = tested on: multiple myeloma cells line KMS-12-PE; experiment: Antitumor effect in myeloma model mice; type: in vivo, CB17/lcr-SCID mice; conditions: 8 mg/kg BW intraperitoneally every day for 14 days; FIG. 5
Description: Next, the antitumor effect of (−)-DHM2EQ on multiple myeloma was investigated. The multiple myeloma cells line KMS-12-PE (Ohtsuki T. et al., Br. J. Hematol. 73, 199-204, 1989) (4×10^7 cells) was dissolved in 0.2 ml of PBS and injected subcutaneously into the left back of CB17/lcr-SCID mice to form tumors. Pieces of these tumors (5 mm^3) were implanted in 10 mice. […] Subsequently, a solution of (−)-DHM2EQ (RPMI1640 medium) was administered intraperitoneally to 5 mice at 8 mg/kg BW every day for 14 days ((−)-DHM2EQ). Another five mice in the control group were given an equal amount of solvent (Control). The diameters of tumors were measured twice a week (Tumor volume=(minor axis)^2×(major axis)×0.52).

[17] = tested on: Undifferentiated human thyroid cancer cell FRO; experiment: Antitumor effect in thyroid cancer model mice; type: in vivo, BALB/cnu/nu male mice; conditions: 10 mg/kg BW intraperitoneally every day for 10 days; FIG. 6
Description: The antitumor effect of (−)-DHM2EQ on human thyroid cancer was investigated. Undifferentiated human thyroid cancer cell suspension FRO (5×10^6 cells; 1200 μl of RPMI-1640) was injected subcutaneously into the flank of 8-week-old BALB/cnu/nu male mice (Charles River, Japan). Subsequently, tumor sizes were measured with calipers every other day, and tumor volume was calculated by formula (a; minor axis of tumor)^2×(b: perpendicular diameter to a)×0.4).

[18] = tested on: hypertrophic fat cells (from precursor fat cell line 3T3-L1); experiment: Apoptosis induction (TUNEL) in hypertrophic fat cells; type: cell-based
Description: It is considered that diseases involving insulin resistance result from TNF-α secreted from hypertrophic fat cells, as mentioned above. Thus, to examine whether (−)-DHM2EQ can induce apoptosis of hypertrophic fat cells, the influence of (−)-DHM2EQ on the hypertrophic fat cells obtained by inducing differentiation of precursor fat cells in long-term culture was investigated. The precursor fat cell line 3T3-L1 (7.5×10^4 cells; 1 ml of DMEM+10% FBS) was plated on coverslips in 12-well plates. A few days after the cells reached confluency, the cell medium was changed to a medium containing 500 μM of 3-isobutyl-1-methylxanthine (IBMX), 1 μM of dexamethasone (Dex), and a medium containing 1 μg/ml of insulin. After culture for 3 days, this medium was changed to a media containing 1 μg/ml insulin, which was cultured for another 3 days, followed by replacement with a normal medium (DMEM containing 10% FBS). Thereafter, medium change was performed every three days continuously till day 50.
On day 50 after differentiation induction, medium change was performed. […] After another 24 h, the medium was removed and hypertrophy fat cells were washed 3 times with 500 μl of PBS (8 g/l NaCl, 0.45 g/l NaH2PO4.2H2O, 1.28 g/l Na2HPO4) for fluorescent antibodies and fixed for 15 min at 4° C. in 500 μl of 4% paraformaldehyde. Subsequently, cells were washed three times with 500 μl of PBS for fluorescent antibodies and treated for 15 min with 0.2% BSA and 0.5% Tween-20 in PBS for fluorescent antibodies.
Subsequently, the coverslips were washed three times with 500 μl of distilled water and then mounted on the paraffin sheet in 150-mm^2 shielded Petri dishes, cells facing upward. TUNEL solution (TdT buffer II/FITC-dUTP/TdT=45 μl/2.5 μl/2.5 μl) was dropped in 45-μl drops onto the coverslips, followed by incubation for 1 h at 37° C. Finally, the coverslips were returned to shielded 12-well plates and washed three times with 1 ml of PBS for fluorescent antibodies. Then the coverslips were removed, mounted on a slide in 50% glycerol, and observed under a fluorescence microscope.

[19] = Body weight under high fat diet in obese type 2 diabetes model; type: in vivo; conditions: supplemented to high fat diet, 4 weeks, KKA^y female mice; FIG. 8
Description: Four-week-old KKA^y female mice were divided into two groups: the (−)-DHM2EQ group (n=5) and the control group (n 4). A high fat diet (CRF-1; Oriental Yeast Co.) as a basal chow diet was fed ad libitum for 4 weeks to the non-supplemented group (∘: without (−)-DHM2EQ) and the (−)-DHM2EQ-administered group (●: with (−)-DHM2EQ). Body weights of animals were measured weekly. The (−)-DHM2EQ given to mice was ground to fine powder in a mortar, suspended or dissolved in a 5% CMC solution, and supplemented to the high fat diet.

C2C12 myoblast cell line = experiment: Relief of TNF-α inhibition of differentiation from myoblasts to muscle cells; type: cell-based, mouse; conditions: 6 days
Description: Thus, the inventors investigated whether addition of (−)-DHM2EQ can relieve the inhibitory responses to muscle differentiation by TNF-α, using a differentiation induction system of the C2C12 myoblast cell line. Using DMEM (culture medium) containing 10% FBS a mouse skeletal myogenic cell line, C2C12 (purchased from the RIKEN cell bank) was prepared at 7.5×10^4 cells/ml. Cells were seeded in plastic 12-well plates on coverslips (1 ml/well; Matsunami Glass Ind., Ltd., Osaka, Japan). Subsequently, when cells had grown to confluence, the medium was changed to DMEM (differentiation medium) containing 0.5% heat-inactivated horse serum. Cells to be subjected to the effect of TNF-α (1 ng/ml) and/or (−)-DHMEQ (3 μg/(ml)) were supplemented with each agent at this point. After 6 days, on confirmation of the formation of multinucleated myotubes, a marker of muscle cell differentiation, the medium was removed. The control was prepared by culturing cells in a culture medium at a density such that confluency was reached exactly on day 6.
These cells were washed twice with PBS^− (Ca^2+, Mg^2+-free PBS; 8.0 g/l NaCl, 0.2 g/l KCl, 2.3 g/l NaHPO4.12H2O, 0.2 g/l KH2PO4). […]
Samples thus prepared were mounted on a slide and photographed at 400× magnification with a fluorescence microscope (Nikon UFX-DX; set with a 40× phase contrast objective, Ph2). […]

NF-κB [20] = experiment: Inhibition of NF-κB activity; type: cell-based

## O=C(NC1=CC(=O)C2OC2C1O)c1ccccc1O (racemic) [(±)-DHM2EQ, 5,6-epoxy-4-hydroxy-3-salicyloylamino-2-cyclohexenone]
[1]
  arthritic symptoms: efficacy of (±)-DHM2EQ in suppression of arthritic symptoms
[2]
  proliferation of Hodgkin's-lymphoma cells: inhibits proliferation
[3]
  proliferation of myelocytic leukemia cells: does not inhibit proliferation
[4]
  proliferation of human breast cancer cells: suppresses proliferation
[5]
  apoptosis of leukemia cells: induces apoptosis
Human normal leukocytes
  apoptosis of human normal leukocytes: does not in the least induce apoptosis
NF-κB [6]
  NF-κB activation in ATL cells: inhibits NF-κB activation
[7]
  proliferation of ATL cells: specifically capable of inhibiting proliferation
Normal cells [8]
  proliferation of normal cells: does not inhibit proliferation
[9]
  apoptosis of ATL cells: capable of inducing apoptosis
Normal cells [10]
  apoptosis of normal cells: does not induce apoptosis
[11]
  cachexic symptoms: efficacy of (±)-DHM2EQ in prevention/improvement of cachexic symptoms
[12]
  effect of oncotherapy that activates NF-κB (chemotherapy, radiotherapy): enhances the effect
NF-κB [13]
  NF-κB inhibition on a cellular level: inhibits NF-κB strongly
[14]
  symptoms in a model mouse of rheumatism: suppresses symptoms
Prostatic cancer
  growth of prostatic cancer on an organism level: strongly suppresses the growth
Breast cancer
  growth of breast cancer on an organism level: strongly suppresses the growth
[15]
  toxicity: low toxicity

## O=C(NC1=CC(=O)[C@H]2O[C@H]2[C@H]1O)c1ccccc1O [(−)-DHM2EQ]
[16]
  tumor growth (tumor volume) compared with the control: significantly suppresses tumor growth
[17]
  tumor growth (tumor volume) compared with the control: significantly inhibits tumor growth
[18]; 10 μg/ml (−)-DHM2EQ alone, without TNF-α
  apoptosis of hypertrophic fat cells: did not induce apoptosis
[18]; pretreated with 10 mg/ml (−)-DHM2EQ, then stimulation with 10 ng/ml TNF-α, TUNEL, FIG. 7
  apoptosis of hypertrophic fat cells: induces apoptosis
[19]
  body weight under high fat diet load: suppression of body weight
C2C12 myoblast cell line; 1 to 3 μg/ml (−)-DHM2EQ with 1 ng/ml TNF-α, FIG. 9
  inhibition by TNF-α of differentiation induction from myoblasts to muscle cells: relieves the inhibition of the differentiation induction
NF-κB [20]
  inhibitory effect on the NF-kappa B activity relative to (±)-DHM2EQ: several to ten or more times stronger

## TNF-α [reference compound]
[18]; 10 ng/ml TNF-α alone
  apoptosis of hypertrophic fat cells: did not induce apoptosis
C2C12 myoblast cell line; 1 ng/ml TNF-α
  differentiation induction from myoblasts to muscle cells: suppressed differentiation induction
